Measurements taken from ChEMBL document CHEMBL4308841, “Synthesis, in vitro antiproliferative activity, and kinase inhibitory effects of pyrazole-containing diarylureas and diarylamides” (Eur J Med Chem, 2018).

Experiments:
OVCAR-8 = assay: Growth inhibition of human OVCAR8 cells assessed as cell growth at 1 uM incubated for 48 hrs by sulforhodamine B assay relative to control; format: functional; conditions: OVCAR-8, 48 h, read-out: Activity
PC-3 = assay: Growth inhibition of human PC3 cells assessed as cell growth at 0.1 uM incubated for 48 hrs by sulforhodamine B assay relative to control; format: functional; conditions: PC-3, 48 h, read-out: Activity
SR = assay: Growth inhibition of human SR cells assessed as cell growth at 0.01 uM incubated for 48 hrs by sulforhodamine B assay relative to control; format: functional; conditions: read-out: Activity
SF-268 [1] = assay: Growth inhibition of human SF268 cells assessed as cell growth at 1 uM incubated for 48 hrs by sulforhodamine B assay relative to control; format: functional; conditions: SF-268, 48 h, read-out: Activity
HCT-116 = assay: Growth inhibition of human HCT116 cells assessed as cell growth at 100 uM incubated for 48 hrs by sulforhodamine B assay relative to control; format: functional; conditions: HCT-116, 48 h, read-out: Activity
SF-295 [2] = assay: Growth inhibition of human SF295 cells incubated for 48 hrs by sulforhodamine B assay; format: functional, cell-based; conditions: SF-295, 48 h
SF-268 [3] = assay: Growth inhibition of human SF268 cells assessed as cell growth at 100 uM incubated for 48 hrs by sulforhodamine B assay relative to control; format: functional; conditions: SF-268, 48 h, read-out: Activity
SF-295 [4] = assay: Growth inhibition of human SF295 cells assessed as cell growth at 1 uM incubated for 48 hrs by sulforhodamine B assay relative to control; format: functional; conditions: SF-295, 48 h, read-out: Activity
SK-MEL-2 = assay: Growth inhibition of human SK-MEL-2 cells assessed as cell growth at 100 uM incubated for 48 hrs by sulforhodamine B assay relative to control; format: functional; conditions: SK-MEL-2, 48 h, read-out: Activity
Hs-578T = assay: Growth inhibition of human Hs578T cells assessed as cell growth at 100 uM incubated for 48 hrs by sulforhodamine B assay relative to control; format: functional; conditions: read-out: Activity
OVCAR-4 [5] = assay: Growth inhibition of human OVCAR4 cells assessed as cell growth at 0.1 uM incubated for 48 hrs by sulforhodamine B assay relative to control; format: functional; conditions: OVCAR-4, 48 h, read-out: Activity
OVCAR-4 [6] = assay: Growth inhibition of human OVCAR4 cells assessed as cell growth at 100 uM incubated for 48 hrs by sulforhodamine B assay relative to control; format: functional; conditions: OVCAR-4, 48 h, read-out: Activity
M14 = assay: Growth inhibition of human M14 cells assessed as cell growth at 0.01 uM incubated for 48 hrs by sulforhodamine B assay relative to control; format: functional; conditions: M14, 48 h, read-out: Activity
SK-OV-3 = assay: Growth inhibition of human SKOV3 cells assessed as cell growth at 0.1 uM incubated for 48 hrs by sulforhodamine B assay relative to control; format: functional; conditions: SK-OV-3, 48 h, read-out: Activity
MDA-MB-231 = assay: Growth inhibition of human MDA-MB-231 cells assessed as cell growth at 0.01 uM incubated for 48 hrs by sulforhodamine B assay relative to control; format: functional; conditions: MDA-MB-231, 48 h, read-out: Activity
LOX IMVI = assay: Growth inhibition of human LOXIMVI cells assessed as cell growth at 0.1 uM incubated for 48 hrs by sulforhodamine B assay relative to control; format: functional; conditions: read-out: Activity
U-251 = assay: Growth inhibition of human U251 cells assessed as cell growth at 0.01 uM incubated for 48 hrs by sulforhodamine B assay relative to control; format: functional; conditions: U-251, 48 h, read-out: Activity
SF-539 = assay: Growth inhibition of human SF539 cells assessed as cell growth at 0.1 uM incubated for 48 hrs by sulforhodamine B assay relative to control; format: functional; conditions: SF-539, 48 h, read-out: Activity
SF-295 [7] = assay: Growth inhibition of human SF295 cells assessed as cell growth at 0.1 uM incubated for 48 hrs by sulforhodamine B assay relative to control; format: functional; conditions: SF-295, 48 h, read-out: Activity
UO-31 [8] = assay: Growth inhibition of human UO31 cells assessed as cell growth at 1 uM incubated for 48 hrs by sulforhodamine B assay relative to control; format: functional; conditions: UO-31, 48 h, read-out: Activity
ACHN = assay: Growth inhibition of human ACHN cells assessed as cell growth at 1 uM incubated for 48 hrs by sulforhodamine B assay relative to control; format: functional; conditions: read-out: Activity
SW-620 = assay: Growth inhibition of human SW620 cells incubated for 48 hrs by sulforhodamine B assay; format: functional, cell-based; conditions: SW-620, 48 h
NCI-H322M = assay: Growth inhibition of human NCI-H322M cells assessed as cell growth at 0.01 uM incubated for 48 hrs by sulforhodamine B assay relative to control; format: functional; conditions: read-out: Activity
SNB-75 = assay: Growth inhibition of human SNB75 cells incubated for 48 hrs by sulforhodamine B assay; format: functional, cell-based; conditions: SNB-75, 48 h
OVCAR-5 = assay: Growth inhibition of human OVCAR5 cells assessed as cell growth at 100 uM incubated for 48 hrs by sulforhodamine B assay relative to control; format: functional; conditions: OVCAR-5, 48 h, read-out: Activity
UO-31 [9] = assay: Growth inhibition of human UO31 cells assessed as cell growth at 0.1 uM incubated for 48 hrs by sulforhodamine B assay relative to control; format: functional; conditions: UO-31, 48 h, read-out: Activity
NCI-H226 = assay: Growth inhibition of human NCI-H226 cells incubated for 48 hrs by sulforhodamine B assay; format: functional, cell-based; conditions: NCI-H226, 48 h
A549 = assay: Growth inhibition of human A549/ATCC cells assessed as cell growth at 100 uM incubated for 48 hrs by sulforhodamine B assay relative to control; format: functional; conditions: A549, 48 h, read-out: Activity
MDA-MB-435 [10] = assay: Growth inhibition of human MDA-MB-435 cells assessed as cell growth at 0.01 uM incubated for 48 hrs by sulforhodamine B assay relative to control; format: functional; conditions: MDA-MB-435, 48 h, read-out: Activity
MDA-MB-435 [11] = assay: Growth inhibition of human MDA-MB-435 cells assessed as cell growth at 100 uM incubated for 48 hrs by sulforhodamine B assay relative to control; format: functional; conditions: MDA-MB-435, 48 h, read-out: Activity
CAKI-1 = assay: Growth inhibition of human Caki1 cells assessed as cell growth at 100 uM incubated for 48 hrs by sulforhodamine B assay relative to control; format: functional; conditions: CAKI-1, 48 h, read-out: Activity
[12] = read-out: LC50 (the source's name)
[13] = read-out: pLC50 (the source's name) (converted)

COc1cc(Cl)cc(-c2nn(-c3cccc(NC(=O)c4ccc(N5CCOCC5)c(C(F)(F)F)c4)c3)cc2-c2ccncc2)c1
growth at 1 µM (OVCAR-8): 56% | growth at 0.1 µM (PC-3): 95% | growth at 0.01 µM (SR): 96% | growth at 1 µM (SF-268 [1]): 93% | growth at 100 µM (HCT-116): 25% | GI50 (SF-295 [2]; read-out: GI50): 2.71 µM | CC50 (SF-295 [2]; [12]): > 100 µM | TGI (SF-295 [2]; read-out: TGI): 14.8 µM | GI50 (SF-295 [2]; read-out: pGI50 (converted)): 2.19 µM | CC50 (SF-295 [2]; [13]): > 100 µM | TGI (SF-295 [2]; read-out: pTGI (converted)): 14.8 µM | growth at 100 µM (SF-268 [3]): 53% | growth at 1 µM (SF-295 [4]): 73% | growth at 100 µM (SK-MEL-2): 15% | growth at 100 µM (Hs-578T): 42% | growth at 0.1 µM (OVCAR-4 [5]): 103% | growth at 100 µM (OVCAR-4 [6]): 38% | growth at 0.01 µM (M14): 97% | growth at 0.1 µM (SK-OV-3): 102% | growth at 0.01 µM (MDA-MB-231): 99% | growth at 0.1 µM (LOX IMVI): 95% | growth at 0.01 µM (U-251): 95% | growth at 0.1 µM (SF-539): 85% | growth at 0.1 µM (SF-295 [7]): 94% | growth at 1 µM (UO-31 [8]): 52% | growth at 1 µM (ACHN): 58% | GI50 (SW-620; read-out: GI50): 2.96 µM | LC50 (SW-620; read-out: LC50): > 100 µM | TGI (SW-620; read-out: TGI): > 100 µM | GI50 (SW-620; read-out: pGI50 (converted)): 29.5 µM | LC50 (SW-620; read-out: pLC50 (converted)): > 100 µM | TGI (SW-620; read-out: pTGI (converted)): > 100 µM | growth at 0.01 µM (NCI-H322M): 97% | GI50 (SNB-75; read-out: GI50): 2 µM | CC50 (SNB-75; [12]): > 100 µM | TGI (SNB-75; read-out: TGI): > 100 µM | GI50 (SNB-75; read-out: pGI50 (converted)): 2.63 µM | CC50 (SNB-75; [13]): > 100 µM | TGI (SNB-75; read-out: pTGI (converted)): > 100 µM | growth at 100 µM (OVCAR-5): 38% | growth at 0.1 µM (UO-31 [9]): 87% | GI50 (NCI-H226; read-out: GI50): 9.34 µM | LC50 (NCI-H226; read-out: LC50): > 100 µM | TGI (NCI-H226; read-out: TGI): > 100 µM | GI50 (NCI-H226; read-out: pGI50 (converted)): 93.3 µM | LC50 (NCI-H226; read-out: pLC50 (converted)): > 100 µM | TGI (NCI-H226; read-out: pTGI (converted)): > 100 µM | growth at 100 µM (A549): 25% | growth at 0.01 µM (MDA-MB-435 [10]): 97% | growth at 100 µM (MDA-MB-435 [11]): 42% | growth at 100 µM (CAKI-1): 14%

O=C(Nc1cccc(-n2cc(-c3ccncc3)c(-c3cc(O)cc(Cl)c3)n2)c1)Nc1ccc(Cl)c(C(F)(F)F)c1
growth at 1 µM (OVCAR-8): 99% | growth at 0.1 µM (PC-3): 98% | growth at 0.01 µM (SR): 105% | growth at 1 µM (SF-268 [1]): 92% | growth at 100 µM (HCT-116): -57% | GI50 (SF-295 [2]; read-out: GI50): 2.06 µM | CC50 (SF-295 [2]; [12]): 17 µM | TGI (SF-295 [2]; read-out: TGI): 49.6 µM | GI50 (SF-295 [2]; read-out: pGI50 (converted)): 2.57 µM | CC50 (SF-295 [2]; [13]): 17.8 µM | TGI (SF-295 [2]; read-out: pTGI (converted)): 4.9 µM | growth at 100 µM (SF-268 [3]): -27% | growth at 1 µM (SF-295 [4]): 91% | growth at 100 µM (SK-MEL-2): -88% | growth at 100 µM (Hs-578T): 1% | growth at 0.1 µM (OVCAR-4 [5]): 105% | growth at 100 µM (OVCAR-4 [6]): -10% | growth at 0.01 µM (M14): 97% | growth at 0.1 µM (SK-OV-3): 104% | growth at 0.01 µM (MDA-MB-231): 105% | growth at 0.1 µM (LOX IMVI): 95% | growth at 0.01 µM (U-251): 97% | growth at 0.1 µM (SF-539): 95% | growth at 0.1 µM (SF-295 [7]): 93% | growth at 1 µM (UO-31 [8]): 84% | growth at 1 µM (ACHN): 92% | GI50 (SW-620; read-out: GI50): 3.29 µM | LC50 (SW-620; read-out: LC50): 58 µM | TGI (SW-620; read-out: TGI): 10.7 µM | GI50 (SW-620; read-out: pGI50 (converted)): 3.31 µM | LC50 (SW-620; read-out: pLC50 (converted)): 56.2 µM | TGI (SW-620; read-out: pTGI (converted)): 10.7 µM | growth at 0.01 µM (NCI-H322M): 107% | GI50 (SNB-75; read-out: GI50): 1.49 µM | CC50 (SNB-75; [12]): > 100 µM | TGI (SNB-75; read-out: TGI): 63.6 µM | GI50 (SNB-75; read-out: pGI50 (converted)): 1.48 µM | CC50 (SNB-75; [13]): > 100 µM | TGI (SNB-75; read-out: pTGI (converted)): 6.31 µM | growth at 100 µM (OVCAR-5): -55% | growth at 0.1 µM (UO-31 [9]): 83% | GI50 (NCI-H226; read-out: GI50): 2.47 µM | LC50 (NCI-H226; read-out: LC50): > 100 µM | TGI (NCI-H226; read-out: TGI): 89.6 µM | GI50 (NCI-H226; read-out: pGI50 (converted)): 2.45 µM | LC50 (NCI-H226; read-out: pLC50 (converted)): > 100 µM | TGI (NCI-H226; read-out: pTGI (converted)): 8.91 µM | growth at 100 µM (A549): -45% | growth at 0.01 µM (MDA-MB-435 [10]): 97% | growth at 100 µM (MDA-MB-435 [11]): -93% | growth at 100 µM (CAKI-1): -38%
